Experimental data reported in ChEMBL document CHEMBL3045938, “Methionine-induced phytoalexin production in rice leaves” (2000).
Active and inactive are the calls of the source. The calls are words filed in the database; no cut-off is given here.

How the values were obtained:
Type in all cases: functional, organism-based
Oryza sativa [1] = assay: Induction of disease resistance in Oryza sativa Nipponbare (rice) assessed as increase in sakuranetin level in press-injured leaves at 0.1% after 48 hr by HPLC-MS-MS analysis
Oryza sativa [2] = assay: Induction of disease resistance in Oryza sativa Nipponbare (rice) assessed as increase in momilactone level in press-injured leaves at 10 mM after 48 hr by HPLC-MS-MS analysis
Oryza sativa [3] = assay: Induction of disease resistance in Oryza sativa Nipponbare (rice) assessed as increase in sakuranetin level in press-injured leaves at 10 mM after 48 hr by HPLC-MS-MS analysis
Oryza sativa [4] = assay: Induction of disease resistance in Oryza sativa Nipponbare (rice) assessed as increase in momilactone level in uninjured leaves at 0.5 mM pretreated with water 24 hr prior to compound treatment measured after 8 to 10 hr by HPLC-MS-MS analysis relative to control
Oryza sativa [5] = assay: Induction of disease resistance in Oryza sativa Nipponbare (rice) assessed as increase in sakuranetin level in uninjured leaves at 0.5 mM pretreated with water 24 hr prior to compound treatment measured after 8 to 10 hr by HPLC-MS-MS analysis relative to control
Oryza sativa [6] = assay: Induction of disease resistance in Oryza sativa Nipponbare (rice) assessed as increase in momilactone level in press-injured leaves at 0.5 mM pretreated with water 24 hr prior to compound treatment measured after 8 to 10 hr by HPLC-MS-MS analysis relative to control
Oryza sativa [7] = assay: Induction of disease resistance in Oryza sativa Nipponbare (rice) assessed as increase in jasmonic acid level in press-injured leaves at 0.5 mM pretreated with water 24 hr prior to compound treatment measured after 6 hr by HPLC-MS-MS analysis relative to control
Oryza sativa [8] = assay: Induction of disease resistance in Oryza sativa Nipponbare (rice) assessed as increase in sakuranetin level in press-injured leaves at 0.5 mM pretreated with water 24 hr prior to compound treatment measured after 8 to 10 hr by HPLC-MS-MS analysis relative to control
Oryza sativa [9] = assay: Induction of disease resistance in Oryza sativa Nipponbare (rice) assessed as increase in jasmonic acid level in press-injured leaves at 0.5 mM after 1 to 2 hr by HPLC-MS-MS analysis relative to control

Molecule: C[S+](CC[C@H](N)C(=O)[O-])C[C@H]1O[C@@H](n2cnc3c(N)ncnc32)[C@H](O)[C@@H]1O (stereo not given in full)
- Activity (Oryza sativa [1]): inactive

Molecule: N[C@@H](Cc1ccccc1)C(=O)O
- Activity (Oryza sativa [1]): inactive

Molecule: O=P(O)(O)CCCl
- Activity (Oryza sativa [2]): inactive
- Activity (Oryza sativa [3]): Active

Molecule: CUPRIC CHLORIDE
- Activity (Oryza sativa [4]): inactive
- Activity (Oryza sativa [5]): inactive
- Activity (Oryza sativa [6]): Active
- Activity (Oryza sativa [7]): Active
- Activity (Oryza sativa [8]): Active
- Activity (Oryza sativa [9]): inactive
